Compound	melting point
CC(C)(N)c1ccc(-c2ccc3[nH]ncc3c2-c2ccno2)cc1.Cl.Cl	256 to 258 °C (dec.)
CC(C)(N)c1ccc(-c2ccc3[nH]ncc3c2[N+](=O)[O-])cc1.Cl	255 to 261 °C (dec.)
CN(C)/C=C/C(=O)c1c(-c2ccc(C(C)(C)NC(=O)OC(C)(C)C)cc2)ccc2nn(C3CCCCO3)cc12 (centres unmarked) [Compound 14, 5-[4-(1-tert-butoxycarbonylamino-1-methylethyl)phenyl]-4-(3-dimethylaminoacryloyl)-2-(tetrahydropyran-2-yl)-2H-indazole]	191 to 194 °C

More lines, now with the values ahead:

melting point	Compound
258 to 261 °C (dec.)	COc1c(-c2ccc(C(C)(C)N)cc2)ccc2[nH]ncc12.Cl.Cl
170 to 173 °C	CC(C)(N)c1ccc(-c2ccc3[nH]ncc3c2OC(F)F)nc1.Cl.Cl.Cl
219 to 224 °C (dec.)	CN(C)c1c(-c2ccc(C(C)(C)N)cc2)ccc2[nH]ncc12.Cl.Cl.Cl
270 to 272 °C	CC(C)(N)c1ccc(-c2ccc3[nH]ncc3c2C#N)cc1.Cl
209 to 213 °C (dec.)	CC(C)(N)c1ccc(-c2ccc3[nH]ncc3c2C2CC2)nc1.Cl.Cl.Cl

— patent US8252945B2, “Protective agent for retinal neuronal cell comprising indazole derivative as active ingredient” (UBE Industries, Ltd., priority 2005, dated 2012)
